Data taken from patent US6503936B1 (priority 1998, dated 2003).
Read-outs that look alike come from different tables or passages of the source.

Tests used:
Phytophthora infestans [1] = assay type: in vivo; details: tomato leaves, 6 days after infection
Phytophthora infestans [2] = assay type: in vivo; details: tomato leaves, 6 days after infection; remark: listed apart in the source

O=S(=O)([O-])[O-].[Cu+2].[Cu+2].[Cu+2].[Cu+2].[OH-].[OH-].[OH-].[OH-].[OH-].[OH-] [II.1, tribasic copper sulfate 3Cu(OH)2xCuSO4]
Efficiency in % of the untreated control (Phytophthora infestans [1]; 12.5 ppm active compound in the spray liquor): 0%
Efficiency in % of the untreated control (Phytophthora infestans [1]; 25 ppm active compound in the spray liquor): 0%
Efficiency in % of the untreated control (Phytophthora infestans [1]; 50 ppm active compound in the spray liquor): 0%
Efficiency in % of the untreated control (Phytophthora infestans [1]; 100 ppm active compound in the spray liquor): 10%
Efficiency in % of the untreated control (Phytophthora infestans [2]; Conc. 12.5 ppm): 0%
Efficiency in % of the untreated control (Phytophthora infestans [2]; Conc. 25 ppm): 8%
Efficiency in % of the untreated control (Phytophthora infestans [2]; Conc. 50 ppm): 8%
Efficiency in % of the untreated control (Phytophthora infestans [2]; Conc. 100 ppm): 8%
Efficiency in % of the untreated control (Phytophthora infestans [2]; Conc. 200 ppm): 8%
